Patent US12202801B1 (priority 2023, dated 2025)

Test system: Mycobacterium tuberculosis H37Rv
Experiment: Resazurin Microplate Assay (REMA), anti-tubercular activity, H37Rv strain
Assay type: cell-based
Conditions: 192 h, read-out: Anti-tubercular activity against Mycobacterium tuberculosis (MIC), H37Rv

N#Cc1ccc(C(=O)C[n+]2ccc(C#N)cc2)cc1.[Br-] [Compound 3f, 4-Cyano-1-(2-(4-cyanophenyl)-2-oxoethyl)pyridin-1-ium bromide]
MIC: 1 µg/mL
